Reference: article PMC8886331, “Lewis fucose is a key moiety for the recognition of histo‐blood group antigens by GI.9 norovirus, as revealed by structural analysis” (FEBS Open Bio, 2022)

Experiments:
[1] = target: T1, GI.9 Vancouver P domain (P dimer) of VP1 (Norovirus Hu/GI/Vancouver730/2004/CAN, UniProt F2XMU3); test: X-ray crystal structure (soak), […] A; format: binding; conditions: crystal in 0.1 M bicine pH 9.0, 1.5-1.7 M MgCl2; soaked with 100 mM ligand overnight at 25 °C; HBGA site at P dimer interface
T1 construct: P (protruding) domain, residues 229-540 of VP1; N11-SUMO fusion from E. coli cell-free system or E. coli KRX, tag cleaved with SUMO protease; homodimer, site formed by both protomers (P-loop from the other protomer)

[2] = target: P domain of the VP1 capsid protein of the GI.9 norovirus Vancouver 730 strain (norovirus GI.9, Vancouver 730 strain); test: SEC; size-exclusion chromatogram of the synthesized P domain proteins; data not shown
[3] = target: T1, GI.9 Vancouver P domain (P dimer) of VP1; test: X-ray crystal structure (soak), […] A; format: binding; conditions: crystal in 0.1 M bicine pH 9.0, 1.5-1.7 M MgCl2; soaked with 100 mM ligand overnight at 25 °C; HBGA site at P dimer interface; remark: listed apart in the source

Compound: CC(=O)N[C@H]1C(O)O[C@H](CO)[C@@H](O[C@@H]2O[C@@H](C)[C@@H](O)[C@@H](O)[C@@H]2O)[C@@H]1O[C@@H]1O[C@H](CO)[C@H](O)[C@H](O)[C@H]1O[C@@H]1O[C@@H](C)[C@@H](O)[C@@H](O)[C@@H]1O (stereo partly drawn) [Lewis b tetrasaccharide]
- X-ray crystal structure (soak), 2.40 A [1]: crystal structures of the P domains complexed with each of Lewis b tetrasaccharide and Lewis x

Compound: P domain of the VP1 capsid protein of the GI.9 norovirus Vancouver 730 strain (domain or fragment)
- stoichiometry N [2]: 2

Compound: CC(=O)N[C@H]1C(O)O[C@H](CO)[C@@H](O[C@@H]2O[C@H](CO)[C@H](O)[C@H](O)[C@H]2O)[C@@H]1O[C@@H]1O[C@@H](C)[C@@H](O)[C@@H](O)[C@@H]1O (stereo partly drawn) [Lewis x trisaccharide]
- X-ray crystal structure (soak), 2.26 A [3]: P domains complexed with each of Lewis b tetrasaccharide and Lewis x trisaccharide
